Test results: US20030083271A1, “Topoisomerase I selective cytotoxic sugar derivatives of indolopyrrolocarbazoles” (priority 2001, published 2003)

How the values were obtained:
P388/CPT45 cells = experiment: Cytotoxicity in camptothecin-resistant P388/CPT45 cells relative to parental P388 (selectivity index R/S); type: cell-based, murine; conditions: IC50 P388/CPT45 cells divided by IC50 parental P388 cells
Text: The present invention includes fluoro sugar and other sugar derivatives of indolopyrrolocarbazoles of formula (I), as defined above. […] Most importantly, the instant invention describes topo I active compounds, related to compounds disclosed in WO 98/07433 and co-pending U.S. application, Ser. No. 08/914566 (both herein incorporated by reference), which display a surprising and unexpected selectivity index when evaluated for cytotoxicity in certain cell lines which express normal levels of topo I required for cell proliferation, compared with cell lines that are deficient in or underexpress topo I. Said “selectivity index” (R/S) was generated by dividing the cytotoxic IC50 of a particular compound against a camptothecin-resistant murine leukemia cell line, P388/CPT45, by the IC50 generated when using the parent P388 cell line. […] A level of selectivity was judged to be advantageous and beneficial in, for example, modulating potential undesirable side effects and/or toxicity. The compounds of the present invention were selected from compounds generically disclosed in WO 98/07433 and co-pending U.S. patent application, Ser. No. 08/914566, on the basis of an unexpected and unpredictable selectivity index (see Table I and II). […] Simple changes in the substitution of the sugar portion or the indolopyrrolocarbazole portion of the present invention will change the selectivity. This change in selectivity is not predictable by one skilled in the art.
(§1) Similarly, P338 murine leukemia cells were maintained in RPMI 1640 supplemented with 20% fetal bovine serum and 10 μM 2-mercaptoethanol. A camptothecin resistant subline, P388/CPT45, was selected for resistance to camptothecin and is over 1000-fold resistant to this compound (Woessner, et al. Oncol. Res. 1992, 4, 481-488).
(§2) In vitro cytotoxicity was assessed in tissue culture cells by MTS (3-(4,5-dimethylthiazol-2-yl)-5-(3-carboxymethoxyphenyl)-2-(4-sulphenyl)-2H-tetrazolium, inner salt) assay (Riss and Moravec, Mol. Biol. Cell 1992, 3 (Suppl.), 184a). Cells were plated at 8,000 cell/well in 96 well microtiter plates and 24 hours later serial dilutions of the test compounds were made and added to the cells. The cells were incubated at 37° C. for 72 hours, at which time the tetrazolium dye, MTS at 333 μg/ml (final concentration), in combination with the electron coupling agent phenazine methosulfate at 25 μM (final concentration) was added. A dehydrogenase enzyme in live cells reduces the MTS to a form that absorbs light at 492 nm which can be quantitated spectrophotometrically. The greater the absorbance the greater the number of live cells. The results are expressed as an IC50, which is the drug concentration required to inhibit cell proliferation (i.e., absorbance at 492 nm) to 50% of that of untreated control cells.
The selectivity index (R/S) is defined as the ratio obtained by dividing the IC50 value obtained using P388/CPT45 cells by that obtained using parental P388 cells. The R/S ratios used to determine the relative topo I selectivity of selected compounds of this invention are shown below in Table I.

[1] = tested on: P388 murine leukemia cells; experiment: In vitro cell-based cytotoxicity, parental P388 cells; conditions: Mus musculus, 72 h, median cytotoxic concentration, 3 days continuous exposure
Experimental: The proliferation inhibition activity against the murine P388 cell line was measured as follows. Evaluation of a soluble tetrazolium/formazan assay for cell growth and drug sensitivity in culture, using human and other tumor cell lines, was done according to the procedure described in Cancer Res. 1988, 48, 4827-4833. Cells were plated at 4000 cells/well in 96 well microtiter plates and 24 h later drugs were added and serially diluted. The cells were incubated at 37° C. for 72 h, at which time a tetrazolium dye, XTT, containing phenazine methosulfate was added. A dehydrogenase enzyme in live cells reduced the XTT to a form that absorbs light at 450 nm, which could be quantitated spectrophotometrically. The greater the absorbance the greater the number of live cells. The results are expressed as an IC50, which is the drug concentration required to inhibit cell proliferation (i.e., absorbance at 450 nm) to 50% of that of untreated control cells.
as §1, §2
The cytotoxic activity for certain compounds of the present invention, in both parental P388 and the camptothecin-resistant P388/CPT45 cell lines are shown below in Table I.

[2] = target: T1, purified human topoisomerase I (Homo sapiens, UniProt P11387); experiment: Topoisomerase I-mediated single strand DNA break induction (in vitro); type: biochemical; conditions: median effect concentration for inducing single-strand breaks in the DNA substrate; read-out: Topo I EC50
T1 construct: purchased Topogen
T1 sequence (P11387 1-765): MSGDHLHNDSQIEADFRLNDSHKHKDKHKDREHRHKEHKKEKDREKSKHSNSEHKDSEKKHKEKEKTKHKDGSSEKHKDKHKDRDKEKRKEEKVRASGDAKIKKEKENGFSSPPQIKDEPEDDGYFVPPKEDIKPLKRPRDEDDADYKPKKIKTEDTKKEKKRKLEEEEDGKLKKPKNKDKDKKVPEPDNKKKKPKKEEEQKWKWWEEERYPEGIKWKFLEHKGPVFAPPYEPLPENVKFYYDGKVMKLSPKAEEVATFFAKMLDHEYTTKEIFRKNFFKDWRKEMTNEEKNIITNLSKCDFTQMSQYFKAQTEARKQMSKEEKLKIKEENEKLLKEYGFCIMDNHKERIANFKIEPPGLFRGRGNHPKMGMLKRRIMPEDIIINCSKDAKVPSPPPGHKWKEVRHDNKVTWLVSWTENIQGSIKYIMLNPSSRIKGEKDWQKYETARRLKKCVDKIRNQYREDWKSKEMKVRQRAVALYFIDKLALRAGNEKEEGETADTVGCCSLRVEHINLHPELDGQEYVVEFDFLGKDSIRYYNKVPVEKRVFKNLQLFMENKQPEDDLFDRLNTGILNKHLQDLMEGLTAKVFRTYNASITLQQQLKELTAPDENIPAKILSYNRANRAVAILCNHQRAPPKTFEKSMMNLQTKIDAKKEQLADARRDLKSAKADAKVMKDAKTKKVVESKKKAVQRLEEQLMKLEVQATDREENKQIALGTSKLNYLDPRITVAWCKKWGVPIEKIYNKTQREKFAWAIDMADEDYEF
Experimental: Topoisomerase I activity was measured as described below. The procedure for assaying compound-induced, topoisomerase I-mediated single strand breaks in DNA was essentially that described by Hsiang, et al., (J. Biol. Chem. 1985, 260, 14873-14878). Samples dissolved in 100% DMSO as either […] or 10 mg/ml solutions, unless otherwise stated, were diluted in Tris-EDTA buffer. Marine bacteriophage PM2 DNA (Boehringer Mannheim) was also diluted in Tris-EDTA buffer to a concentration of 0.02 μg/μl. Different dilutions of the compound being evaluated were mixed with diluted DNA and this mixture was added to […] (one unit of enzyme activity is defined as the amount capable of relaxing 100 ng of supercoiled DNA in approximately 30 minutes at 37° C.) aliquots of purified human topoisomerase I (Topogen) in 2X reaction buffer to start the reaction. The compound-DNA-enzyme mixture was incubated for 30 minutes at 37° C. before stopping the reaction with warm stop buffer containing sodium dodecyl sulfate and proteinase K (Sigma). These mixtures were allowed to incubate at 37° C. for another 10 minutes, at which time the mixtures were removed from the waterbath and extracted with a 24:1 mixture of chloroform/isoamyl alcohol. Following centrifugation, aliquots of the aqueous phases were placed in wells of a 0.9% agarose (SeaKem) gel in Tris-borate buffer containing 0.5 μg/ml of ethidium bromide and subjected to electrophoresis for 15 hours to separate the different topological isomers and nicked and broken DNAs. After destaining the gel in water, the ethidium bromide stained DNA reaction products were visualized by exposing the gel to UV irradiation. Negatives of the photographs of the irradiated gels were scanned with a densitometer and areas under the peaks were calculated in order to obtain percent single strand DNA break formation for each sample. A median effective concentration (EC50) was obtained for each compound by interpolation between points of the resulting dose-effect curve which defines the potency of the compound for its effect in inducing topoisomerase I-mediated single strand breaks in DNA. The topoisomerase I activities for certain compounds of the present invention are shown below in Table I.

EC50 [2]	SMILES	Selectivity Index R/S (P388/CPT45 cells)	IC50 [1]
–	C[C@]1(O)C[C@@H](CO)O[C@@H](n2c3cc(F)c(F)cc3c3c4c(c5c6cc(F)c(F)cc6[nH]c5c32)C(=O)NC4=O)[C@@H]1O [Example 18, 12-[4-Deoxy-3-methyl-β-D-glucopyranosyl]-2,3,9,10-tetrafluoro-12,13-dihydro-5H-indolo[2,3-a]pyrrolo[3,4-c]carbazole-5,7(6H)-dione]	184.8	8 nM
240 nM	O=C1NC(=O)c2c1c1c3cc(F)ccc3sc1c1c2c2cc(F)ccc2n1[C@@H]1O[C@H](CSc2nccc(O)n2)[C@@H](O)[C@H](O)[C@H]1O [Example 35]	<1.0	> 7680 nM
120 nM	O=C1NC(=O)c2c1c1c3cc(F)c(F)cc3sc1c1c2c2cc(F)c(F)cc2n1[C@@H]1O[C@H](CF)[C@@H](O)[C@H](O)[C@H]1O [Example 8, 13-[6-Dideoxy-6-fluoro-β-D-glucopyranosyl]-2,3,9,10-tetrafluoro-5H,13H-benzo[b]thienyl[2,3-a]pyrrolo[3,4-c]carbazole-5,7(6H)-dione]	119.1	52 nM
–	O=C1NCc2c1c1c3cc(F)ccc3n([C@@H]3O[C@H](CO)[C@@H](F)[C@H](O)[C@H]3O)c1c1[nH]c3ccc(F)cc3c21 [Example 34, 12-[4-Deoxy-4-fluoro-β-D-glucopyranosyl)-3,9-difluoro-12,13-dihydro-5H-indolo[2,3-a]pyrrolo[3,4-c]carbazole-7(6H)-one]	2859.5	2 nM
20 nM	NC[C@@H]1C[C@H](O)[C@@H](O)[C@H](n2c3ccc(F)cc3c3c4c(c5c6cc(F)ccc6[nH]c5c32)C(=O)NC4=O)O1 [Example 41]	27.3	72 nM
30 nM	O=C1NC(=O)c2c1c1c3cc(F)ccc3[nH]c1c1c2c2cc(F)ccc2n1[C@@H]1O[C@H](CF)C[C@H](O)[C@H]1O [Example 15]	>149.7	5 nM
20 nM	O=C1NC(=O)c2c1c1c3cc(F)ccc3[nH]c1c1c2c2cc(F)ccc2n1[C@@H]1O[C@H](CO)C[C@@H](O)[C@H]1O [Example 20, 12-[4-Deoxy-β-D-allopyranosyl)-3,9-difluoro-12,13-dihydro-5H-indolo [2,3-a]pyrrolo[3,4-c]carbazole-5,7(6H)-dione]	201.2	2 nM
160 nM	O=C1NC(=O)c2c1c1c3cc(F)ccc3sc1c1c2c2cc(F)ccc2n1[C@@H]1O[C@H](CN2CCOCC2)[C@@H](O)[C@H](O)[C@H]1O [Example 13]	140.0	100 nM
–	CC(C)CC(N)C(=O)O[C@H]1[C@H](n2c3cc(F)c(F)cc3c3c4c(c5c6cc(F)c(F)cc6[nH]c5c32)C(=O)NC4=O)O[C@H](CF)C[C@@H]1O (stereo in doubt) [Example 5, 12-[4,6-Dideoxy-6-fluoro-2-O-leucyl-β-D-glucopyranosyl]-2,3,9,10-tetrafluoro-12,13-dihydro-5H-indolo[2,3-a]pyrrolo[3,4-c]carbazole-5,7(6H)-dione]	112.5	32 nM
–	C[C@@]1(O)C[C@@H](CO)O[C@@H](n2c3cc(F)c(F)cc3c3c4c(c5c6cc(F)c(F)cc6[nH]c5c32)C(=O)NC4=O)[C@@H]1O [Example 29, 12-[4-Deoxy-3-methyl-β-D-allopyranosyl]-2,3,9,10-tetrafluoro-12,13-dihydro-5H-indolo[2,3-a]pyrrolo[3,4-c]carbazole-5,7(6H)-dione]	539.6	5 nM
–	O=C1NCc2c1c1c3cc(F)ccc3[nH]c1c1c2c2cc(F)ccc2n1[C@@H]1O[C@H](CO)[C@@H](F)[C@H](O)[C@H]1O [Example 32, 12-[4-Deoxy-4-fluoro-β-D-glucopyranosyl]-3,9-difluoro-12,13-dihydro-5H-indolo[2,3-a]pyrrolo[3,4-c]carbazole-5(6H)-one]	1051.8	5 nM
–	C[C@@H]1C[C@H](O)[C@@H](O)[C@H](n2c3ccc(F)cc3c3c4c(c5c6cc(F)ccc6[nH]c5c32)C(=O)NC4=O)O1 [Example 11, 12-[4,6-Dideoxy-β-D-glucopyranosyl]-3,9-difluoro-12,13-dihydro-5H-indolo[2,3-a]pyrrolo[3,4-c]carbazole-5,7(6H)-dione]	125.3	16 nM
–	CNCC(=O)NC[C@H]1O[C@@H](n2c3ccc(F)cc3c3c4c(c5c6cc(F)ccc6sc5c32)C(=O)NC4=O)[C@H](O)[C@@H](O)[C@@H]1O [Example 23, 12-[6-Deoxy-6-[(N-methylglycinyl)amino]-β-D-glucopyranosyl]-3,9-difluoro-5H, 13H-benzo[b]thienyl[2,3-a]pyrrolo[3,4-c]carbazole-5,7(6H)-dione]	306.8	25 nM
